The values that follow come from PubChem BioAssay AID179 (DTP/NCI, 2004).

The structures appear in SMILES notation. Active and inactive are the calls of the source.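 How the source made its calls: active means compounds giving half or more protection of infected cells from virus-caused growth loss, again on retest; inactive means the rest.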 Bounds are passed on as bounds.

In the assay the test system is CEM cells HIV-1 protection, formazan growth assay. As to the kind of experiment: NCI AIDS Antiviral Assay. Conditions: for IC50: measured here: growth of uninfected CEM cells. The gist of the method:
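Screen of anti-HIV-1 activity in human CEM cells using a formazan-based growth measurement at five drug concentrations. Hits with 50% or greater protection were repeated, and confirmation required reproducible complete protection.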

Turning to `O=C(Nc1cc([N+](=O)[O-])cc([N+](=O)[O-])c1)OC1C2CCC1C1OC1C2` (stereo not drawn), the EC50 (usually the concentration needed to bring the measured effect to its halfway point) was over 14.8 µM and the IC50 – broadly, the concentration that inhibits the measured activity by half – was over 14.8 µM.
On to `CN1C(=O)C2(C#N)C(C)(C)C2(C#N)C1=O` (stereo not drawn), for which the EC50 was over 200 µM and the IC50 is over 200 µM.
Take `OC(c1ccc(Cl)cc1)(c1ccc(Cl)cc1)c1cncnc1`: the outcome was inactive.
As to `CC1=C(C(=O)NNC(=O)c2ccccc2O)CC(C(=O)NNC(=O)c2ccccc2O)=C(C)N1`, the EC50 is over 200 µM and the IC50 was determined as 1.66 µM.
The corresponding values for `Cc1ccc(C2SCc3nc4ccccc4n32)cc1` (stereo not drawn) are over 200 µM and 1.02 µM.
Regarding `Cc1cc(C)nc(NS(=O)(=O)c2ccc(NNc3c4ccccc4nc4c(C(=O)Nc5ccc(S(=O)(=O)N=C(N)N)cc5)cccc34)cc2)n1`, the EC50 was over 200 µM and the IC50 is 31.6 µM.
The corresponding values for `OCCN1CCN(CC/C=C2\c3ccccc3Sc3ccc(Cl)cc32)CC1` are over 200 µM and 10.2 µM.
Turning to `CCCCN=C(NC#N)NCCCC`, the EC50 is over 457 µM and the IC50 is 224 µM.
Regarding `COC[C@@]12CCC(OC)C34[C@@H]5C[C@@]6(O)C(OC(=O)c7ccccc7)[C@@H]5[C@@]5(O[C@@H]5[C@@H]6OC)[C@@H](C(OC)[C@@H]31)[C@@H]4N(C)C2` (stereo partly drawn), the result was inactive.
On to `CCCC(=O)C1=C(O)C(Cc2c(O)c(C)c(O)c(C(=O)CCC)c2O)=C(O)C(C)(C)C1=O`, for which the EC50 was over 200 µM and the IC50 was 10.7 µM.
For the molecule `COc1ccc2c(=O)oc3c(OC)cc(CCN(C)C)c4c(=O)oc1c2c34`, the outcome was inactive.
With `O=C(Nc1ccc(Cl)cc1)/C(Cc1cccc[n+]1[O-])=N\Nc1ccc([N+](=O)[O-])cc1[N+](=O)[O-]`, the EC50 is over 107 µM and the IC50 was over 107 µM.
With `CCOP(=O)(OCC)/C(=C/n1c(=S)[nH]c2ccccc21)C(=O)OC`, the EC50 is over 200 µM and the IC50 was over 200 µM.
As to `COc1ccc(SCc2cc(OC)ccc2OC)cc1`, the EC50 is over 200 µM and the IC50 stood at 3.98 µM.
Consider `O=C(CCn1[nH]c(=O)c(Cl)c(Cl)c1=O)NO`, for which the EC50 is over 933 µM and the IC50 worked out at 832 µM.
With `CC(C)N1CN(C(C(=O)N[C@@H]2C(=O)N3C2SC(C)(C)C3C(=O)O)c2ccccc2)CSC1=S` (stereo partly drawn), the EC50 was over 257 µM and the IC50 came out at 155 µM.
On to `Nc1ccc(Cn2ccc3c4c(N)nc(N)nc4ccc32)cc1`, for which the outcome was inactive.
With `COC1/C=C/OC2(C)Oc3c(C)c(O)c4c(O)c(cc(OCC(=O)N5CCCCCC5)c4c3C2=O)NC(=O)/C(C)=C\C=C\C(C)C(O)C(C)C(O)C(C)C(OC(C)=O)C1C` (stereo not drawn), the EC50 is over 200 µM and the half-inhibitory concentration (IC50) turned out to be 39.8 µM.
For the molecule `O=C1NC(=O)C23CCCCc4cccc(c42)C(=O)C13` (stereo not drawn), the EC50 was over 372 µM and the 50% inhibitory concentration (IC50) is over 372 µM.
Regarding `Nc1ccc(C(=O)N/C(=C\c2cccc([N+](=O)[O-])c2)c2nc3[nH]c(=S)[nH]c(=O)c3[nH]2)cc1`, the result was inactive.
As for `Nc1cccc(S(=O)(=O)NCC(=O)O)c1`, the result was inactive.
Turning to `C=C[C@]1(C)CC(O)C2C(=C)C(=O)OC2[C@H]1C(=C)C=O` (stereo partly drawn), the EC50 was over 200 µM and the IC50 stood at 3.31 µM.
Turning to `N.N.N.N.O=C([O-])CCl.O=C([O-])CCl.[Co+3].[O-][Cl+3]([O-])([O-])[O-]`, the result was inactive.
Take `CCOc1c2c(cc3c1C(=O)c1c(OC)cccc1C3=O)C=C(OC)CC2`: the EC50 was over 25.1 µM and the IC50 is 13.5 µM.
As to `C[N+](C)=c1nc(N2CCOCC2)ss1`, the result was inactive.
Regarding `O=C1c2c(O)cc(O)cc2O[C@H](c2ccc(O)cc2)[C@H]1[C@@H]1C(=O)c2c(O)cc(O)cc2O[C@H]1c1ccc(O)cc1`, the EC50 was over 200 µM and the 50% inhibitory concentration (IC50) came to 8.51 µM.
The corresponding values for `COc1ccc(CC[N+](C)(C)C)cc1` are over 200 µM and over 200 µM.
`Brc1ccc(-c2ccc3nnnn3n2)s1`: the EC50 is over 200 µM and the IC50 is over 200 µM.
`CC(=O)OCC1OC(n2c(-c3ccccc3)c(N=Nc3ccc(C)cc3)c(C)c(C#N)c2=S)C(OC(C)=O)C(OC(C)=O)C1OC(C)=O` (stereo not drawn): the EC50 is 195 µM and the IC50 was over 200 µM.
For `CN1CC(Br)(Br)C(=O)N(C)C1=O`, the EC50 was over 200 µM and the IC50 was determined as 3.24 µM.
Consider `COC1[C@H](NC(=O)OC(C)(C)C)C(=O)N1Cc1ccccc1` (stereo partly drawn), for which the result was inactive.
On the same count and under the same terms, as for `Cc1ccc(S(=O)(=O)/C(C#N)=C/NS(=S)c2ccncc2)cc1` (stereo not drawn), the entry is “inactive”; as for `O=C1CCCC/C1=C\c1ccc(Cl)c(Cl)c1`, “inactive”.
Consider `CN(C)c1ccc(-c2c(C#N)c(S)n(NS(=O)(=O)c3ccccc3)c(=O)c2C#N)cc1`, for which the EC50 was over 200 µM and the IC50 was 8.32 µM.
The corresponding values for `O=C(Nc1ccccn1)c1ccccc1[Se][Se]c1ccccc1C(=O)Nc1ccccn1` are 3.55 µM and 8.13 µM.
The corresponding values for `COc1ccc(/C=C2\CCS(=O)(=O)c3ccccc3C2=O)cc1` are over 200 µM and 16.6 µM.
For `Oc1cc(O)c2ccc(-c3ccc(O)c(O)c3)[o+]c2c1`, the EC50 was over 200 µM and the IC50 worked out at 12.3 µM.
`COc1ccc(-c2cc(-c3ccccc3)nc3c2CC(=O)Nc2ccccc2-3)cc1OC`: the EC50 is over 100 µM and the IC50 was 15.5 µM.
The corresponding values for `C#Cc1ccccc1N1C(=O)C=CC1=O` are over 251 µM and over 251 µM.
For the molecule `OCC1CC2c3[nH]c4ccccc4c3CCN2C1` (stereo not drawn), the EC50 was over 282 µM and the concentration for half-maximal inhibition (IC50) is over 282 µM.
On to `CCN(CC)c1c(C(C)(C)C)c(=O)n2ccsc2c1OC(C)=O`, for which the EC50 was over 200 µM and the IC50 is 32.4 µM.
`CC(=O)Oc1cc2c(n(C)c1=O)CCC2`: the EC50 was over 200 µM and the IC50 was 155 µM.
The corresponding values for `NC(=O)NC(=O)c1cccs1` are over 200 µM and over 200 µM.
For the molecule `[N-]=[N+]=NCC(CO)OCn1cc(Cc2cccc(OCc3ccccc3)c2)c(=O)[nH]c1=O` (stereo not drawn), the result was inactive.
Consider `CCS[C@@H]([C@@H](COC(C)=O)OC(C)=O)[S@](=O)CC`, for which the EC50 was over 200 µM and the IC50 was found to be 26.3 µM.
Regarding `C=CCONC(=O)c1ccc(Cl)cc1`, the EC50 was over 617 µM and the IC50 is 525 µM.
In the case of `O=C1NC(=O)[C@@H](OCC2CCCCC2)[C@@H]2OCC3OC(C(O)C3O)C12` (stereo partly drawn), the EC50 is over 200 µM and the 50% inhibitory concentration (IC50) is over 200 µM.
As to `O=c1nc(Oc2ccccc2)nc2cnccn12`, the EC50 is over 372 µM and the IC50 is 145 µM.
With `COC(=O)[C@@]1(C)/C(=N/NS(=O)(=O)c2ccc(C)cc2)CCC[C@@H]1C`, the EC50 was over 269 µM and the IC50 came out at 219 µM.
The corresponding values for `COc1ccc(C(=O)N2c3ccccc3N(C)n3cccc3C2CC(=O)O)cc1` (stereo not drawn) are over 646 µM and 234 µM.
As for `CC1CCC(=O)C(C(=O)CC2CC(=O)N(C)C(=O)C2)C1` (stereo not drawn), the EC50 is over 126 µM and the IC50 is over 126 µM.
On to `Brc1ccc2[nH]c3nc(N/N=C/c4cccs4)nnc3c2c1`, for which the EC50 was over 200 µM and the IC50 was over 200 µM.
`COCN1C(=O)C2CC(/C=C/C(N)=O)=CN2C(=O)c2ccccc21` (stereo not drawn): the result was inactive.
Take `O=C(O)c1ccccc1C1c2ccc(Cl)cc2Oc2cc(Cl)ccc21`: the EC50 was over 10 µM and the IC50 was over 10 µM.
Turning to `Cc1ccc(NC(=O)C(=O)CC(=O)C2CCOC2=O)c(C)c1` (stereo not drawn), the result was inactive.
For `COC(=O)c1cc2c3c(c1)Oc1cc(C(=O)OC)cc4c1C3c1c(cc(C(=O)OC)cc1O4)O2`, the EC50 is over 200 µM and the half-maximal inhibitory concentration (IC50) was determined as 55 µM.
The corresponding values for `CC1c2c(cc(=O)[nH]c2O)C(=O)N1C` (stereo not drawn) are over 245 µM and over 245 µM.
The corresponding values for `O=C(O)c1ccsc1Cc1cccs1` are over 200 µM and over 200 µM.
The corresponding values for `Cc1c2nc3ccccc3sc-2cc(=O)c1C` are over 21.4 µM and over 21.4 µM.
With `Cn1c(=O)[nH]c(N2CCCC2)c(C#N)c1=S`, the EC50 is over 200 µM and the IC50 is over 200 µM.
For the molecule `C(=C\C(Sc1ccccc1)c1ccccc1)/NNC1=NC(c2ccccc2)C(c2ccccc2)=NN1` (stereo not drawn), the EC50 is over 14.8 µM and the IC50 is over 14.8 µM.
As for `CC(C)(C)CC(C)(C)c1cc2c(O)c(c1)Cc1cc(C(C)(C)CC(C)(C)C)cc(c1O)Cc1cc(C(C)(C)CC(C)(C)C)cc(c1O)Cc1cc(C(C)(C)CC(C)(C)C)cc(c1O)Cc1cc(C(C)(C)CC(C)(C)C)cc(c1O)Cc1cc(C(C)(C)CC(C)(C)C)cc(c1O)Cc1cc(C(C)(C)CC(C)(C)C)cc(c1O)Cc1cc(C(C)(C)CC(C)(C)C)cc(c1O)C2`, the EC50 is over 2.04 µM and the IC50 is over 2.04 µM.
As to `Cc1cn(C2CCC(COP(=O)(OCC(=O)c3ccccc3)OCC(=O)c3ccccc3)O2)c(=O)[nH]c1=O` (stereo not drawn), the EC50 is 19.5 µM and the IC50 is over 200 µM.
As for `CCCc1cc(=O)oc2c3c(c4c(c12)OC(C)(C)CC4)O[C@H](C)C(C)C3=O` (stereo partly drawn), the 50% effective concentration (EC50) was 12.3 µM and the IC50 was 186 µM.
The corresponding values for `Cc1cc2c(=O)cc(-c3ccccc3Cl)oc2c(C#N)c1C` are over 100 µM and over 100 µM.
The corresponding values for `N#C/C(=C\c1ccc(O)c(O)c1)C(=O)NCCc1ccc(O)c(O)c1` are over 200 µM and 30.9 µM.
`CCOC(=O)c1c2ccccc2n2c(=O)n(-c3ccc(OC)cc3)nnc12`: the EC50 is over 57.5 µM and the IC50 worked out at 32.4 µM.
In the case of `C/C(O)=C(/C=N/C(=S)Nc1ccccc1)C(=O)Nc1ccccc1C`, the EC50 was over 200 µM and the IC50 worked out at 195 µM.
With `O=C(Cn1c2ccc(Br)cc2c2nc3ccccc3nc21)N/N=C/c1ccccc1`, the EC50 is over 100 µM and the IC50 was over 100 µM.
With `C#Cc1c(C)c(/C=C/C(C)=C/C=C/C(C)=C/C(=O)OC)n(C)c1C`, the EC50 is over 22.4 µM and the IC50 is over 22.4 µM.
Consider `CCOC(=O)Nc1nc2cc(C(=O)OCC)n(C)c2s1`, for which the EC50 is over 200 µM and the IC50 is over 200 µM.
